Experimental data published in US10655163B2, “Methods, kits, and systems for multiplexed detection of target molecules and uses thereof” (THE GENERAL HOSPITAL CORPORATION, priority 2013, dated 2020).
Entries after “also recorded” stand apart in the source; their conditions may differ.

Assays:
[1] = tested on: four human cancer cell lines; assay: Proteomic profiling of olaparib and cisplatin treatments; format: cell-based; conditions: FIGS. 15C-15D
Protocol: Proteomic profiling of olaparib and cisplatin treatments was performed for four human cancer cell lines, showing varying drug sensitivities as measured by viability assays (FIGS. 14A-14B and FIG. 15A).
Drug treatments of cell lines. To test the effect of drug treatment on protein expression levels, the cell lines were treated with a number of different chemotherapeutic or molecularly targeted drugs. […] DNA-damaging agents olaparib and cisplatin were applied to cells for 3 days. Changes in protein expression levels were compared to medium controls under identical conditions but without drug treatment.
Data analysis: calculating proteomic expression profiles. Protein expression profiles were extracted from raw data as follows. First, raw DNA counts were normalized via the mean of the internal NanoString positive controls, which account for hybridization efficiency. […]
Correlation between single-cell analysis and bulk measurement was calculated in GraphPad Prism. Spearman r values were calculated without assuming a normal, consistent distribution. Two-sided P values were calculated, where significant markers were identified by comparing two groups (for example, treated versus untreated) in Prism and performing pairwise t tests with an FDR of 0.2 for multiple test correction error. […] Class separability was measured by the Bhattacharya distance.

[2] = tested on: HT1080 fibrosarcoma cell lines; assay: Taxol dose response screen in HT1080 cells, ABCD protein marker profiling; format: cell-based, human; conditions: different doses of taxol
Text: Having established feasibility of inter- and intrapatient analyses in clinical samples, it was next sought to explore the feasibility of monitoring cancer treatment over time. To this end, it was first sought to determine if known pathway responses to different drug treatments could be discriminated. […]. […] Notable examples include pS6RP for targeted treatments, and pH2A.X, pATM/ATR (phospho-ataxia telangiectasia mutated/ATM- and Rad3-related) substrate, and cleaved PARP for DNA-damaging agents. Unexpected results, such as epigenetic histone modifications after treatment with a phosphatidylinositol 3-kinase inhibitor (PI3Ki) was also found (FIG. 15E). For additional in vitro validation of treatment, HT1080 fibrosarcoma cell lines were treated with four different doses of taxol.
To evaluate the assay's ability to measure even small marker changes, HT1080 human fibrosarcoma cells were treated with taxol at […] different doses. Marker changes at high doses were compared to marker changes quantified by an independent immunofluorescence screen (FIG. 16A). […] These in vitro studies established that the marker panel could indeed measure pathway changes in response to varying drug mechanisms; furthermore, these changes could be detected in a sensitive, dose-dependent manner.
Immunofluorescence. […]

**Q.** With N.N.[Cl][Pt][Cl] [cisplatin] as the compound, how does the “changes in DNA damage and apoptosis markers” value [1] read?
**A.** degradation of Bim and up-regulation of pERK

**Q.** With CC(=O)O[C@H]1C(=O)[C@@]2(C)[C@H]([C@H](OC(=O)c3ccccc3)[C@]3(O)C[C@H](OC(=O)[C@H](O)[C@@H](NC(=O)c4ccccc4)c4ccccc4)C(C)=C1C3(C)C)[C@]1(OC(C)=O)CO[C@@H]1C[C@@H]2O [taxol, paclitaxel] as the compound, how does the “protein marker changes in response to taxol treatment” value [2] read?
**A.** dose-response changes; also recorded: dose-response curves
